Results published in patent US10709714B2 (CL BioSciences LLC, priority 2013, dated 2020).
Read-outs that look alike come from different tables or passages of the source. One block for each molecule: values may come before it. Ends that are not written are not given here.

How the values were obtained:
isolated G cells [1] = experiment: Gastrin release from isolated G cells; format: cell-based; details: for EC50: read-out: EC50, stimulation of gastrin release
Procedure: (§1) The effect of the ovarian hormone, estrogen on G cell function was evaluated.

isolated G cells [2] = experiment: cAMP production in isolated G cells; format: cell-based
Procedure: as §1

[3] = tested on: MAPK phosphorylation in G cells; experiment: MAPK phosphorylation in G cells; format: cell-based; details: preincubation
G cells = experiment: Calcium influx in G cells (flow cytometry, FITC shift); format: cell-based; details: CaCl2 4 mM
isolated rodent G cells = details: for EC50: read-out: Calcium (EC50); for IC50: read-out: OCTR (IC50)
Source text: This animal has been extensively studied as a model of gastric acid pathophysiology relevant to long-term pharmacological inhibition of acid secretion (low acid state pathobiology).

PTH chief cells = details: read-out: EC50, stimulation of PTH release; human PTH chief cells
CCK2 receptor = biological target: T1, CCK2 receptor (Homo sapiens, UniProt P32239); experiment: Gastrin-stimulated cAMP production and calcitonin release/transcription in MTC-SK cells; format: cell-based; details: H-89 10 μM preincubation
T1 construct: Gastrin stimulated both cAMP as well as calcitonin release from the well-differentiated human MTC cell line, MTC-SK; endogenous in cells; host or cells: MTC-SK (human medullary thyroid carcinoma cell line)
T1 sequence (P32239 1-447): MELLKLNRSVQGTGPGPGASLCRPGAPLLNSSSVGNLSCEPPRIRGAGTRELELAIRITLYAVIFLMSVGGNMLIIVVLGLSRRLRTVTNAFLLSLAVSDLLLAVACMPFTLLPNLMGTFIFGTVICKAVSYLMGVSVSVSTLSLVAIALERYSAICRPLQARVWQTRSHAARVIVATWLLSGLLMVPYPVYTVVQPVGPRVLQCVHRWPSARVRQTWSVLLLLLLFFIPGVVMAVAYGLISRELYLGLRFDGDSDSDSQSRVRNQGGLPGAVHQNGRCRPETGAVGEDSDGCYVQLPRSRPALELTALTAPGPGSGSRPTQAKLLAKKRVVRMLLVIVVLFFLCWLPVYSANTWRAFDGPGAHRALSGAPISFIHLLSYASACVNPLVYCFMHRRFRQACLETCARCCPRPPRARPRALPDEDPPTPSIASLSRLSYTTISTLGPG

isolated G cells [4] = experiment: Gastrin release from isolated G cells; format: cell-based; details: for effect on CaCl2-mediated gastrin release: nifedipine 1 μm (preincubation 10 mins), H-89 10 μM, PD98059 0.1 μM, wortmannin 1 nM
[5] = Plasma gastrin in Mastomys under irreversible gastric acid suppression; format: in vivo; details: Mastomys 6-9 months, treated 30 days, Loxtidine 1 mg/L in drinking water
Source text: This animal has been extensively studied as a model of gastric acid pathophysiology relevant to long-term pharmacological inhibition of acid secretion (low acid state pathobiology). […] Such treatment therefore results in an achlorhydric and hypergastrinemic animal model.

Mastomys femur = experiment: Bone histomorphometry (TRAP-positive osteoclasts) in loxtidine-treated Mastomys; format: in vivo
Procedure: In one aspect, the changes in loxtidine-treated animals reflect loss of bone mineralization and increased resorption—features consistent with osteoporotic phenotypes. BM=bone mineralization, RC=resorption cavity.
Animals (females) 4-6 months old were treated with Loxtidine for 60 or 120 days. Age- and sex-matched untreated animals provided a control group.
Thereafter, bone histomorphometry was examined. […] Evidence of osteoid seams and osteomalacia was also noted (FIG. 21).

[6] = biological target: gastrin/CCK2 receptor (human, on isolated PTH chief cells and on the MTC-SK cell line) (human) (UniProt P32239); experiment: cell-based or functional assay
[7] = 0.02-4 U/min, young anesthetized pigs; cited from earlier work
PTH receptor on G cells = experiment: cell-based or functional assay
[8] = biological target: T2, calcitonin receptor on G cells; experiment: cell-based or functional assay
T2 sequence (P30988 whole entry, species assumed, looked up): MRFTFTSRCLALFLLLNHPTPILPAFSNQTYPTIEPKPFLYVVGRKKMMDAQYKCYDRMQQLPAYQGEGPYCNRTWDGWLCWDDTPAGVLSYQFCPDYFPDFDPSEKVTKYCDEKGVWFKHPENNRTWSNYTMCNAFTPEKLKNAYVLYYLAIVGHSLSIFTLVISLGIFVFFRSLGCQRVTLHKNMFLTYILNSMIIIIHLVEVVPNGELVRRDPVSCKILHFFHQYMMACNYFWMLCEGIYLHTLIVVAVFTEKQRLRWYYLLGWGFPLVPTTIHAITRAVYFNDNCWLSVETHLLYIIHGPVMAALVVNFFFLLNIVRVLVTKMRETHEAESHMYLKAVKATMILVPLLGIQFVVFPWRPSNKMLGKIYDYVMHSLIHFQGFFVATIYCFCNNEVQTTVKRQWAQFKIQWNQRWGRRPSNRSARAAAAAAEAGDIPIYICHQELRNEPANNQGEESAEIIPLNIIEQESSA

[9] = H-89 10 μM preincubation 10 mins

Molecule: C[C@]12CC[C@@H]3c4ccc(O)cc4CC[C@H]3[C@@H]1CC[C@@H]2O [17β-estradiol]
inhibition of gastrin release (isolated G cells [1]): ~20% | IC50 (isolated G cells [1]; read-out: IC50, inhibition of gastrin release): 4.6 pM | inhibition of cAMP production (isolated G cells [2]): −15% | IC50 (isolated G cells [2]; read-out: IC50, inhibition of cAMP synthesis): 0.0011 nM | inhibition of MAPK phosphorylation [3]: 75%

Molecule: [Ca+2].[Cl-].[Cl-] [CaCl2]
stimulation of gastrin release (isolated G cells [1]; isolated G cells): 8 fold | EC50 (isolated G cells [1]; isolated G cells): 4100 µM | cAMP production during calcium-mediated gastrin secretion (isolated G cells [2]): not associated with cAMP production | calcium influx (FITC shift rightwards) (G cells): > 5 fold | EC50 (isolated rodent G cells; Low acid G-cells): 10000 µM | EC50 (isolated rodent G cells; Normal G-cells): 4000 µM

Molecule: CSCC[C@H](NC(=O)[C@H](Cc1c[nH]c2ccccc12)NC(=O)CNC(=O)[C@H](Cc1ccc(O)cc1)NC(=O)[C@H](C)NC(=O)[C@H](CCC(=O)O)NC(=O)[C@H](CCC(=O)O)NC(=O)[C@H](CCC(=O)O)NC(=O)[C@H](CCC(=O)O)NC(=O)[C@H](CCC(=O)O)NC(=O)[C@H](CC(C)C)NC(=O)[C@H](Cc1c[nH]c2ccccc12)NC(=O)[C@@H]1CCCN1C(=O)CNC(=O)[C@@H]1CCC(=O)N1)C(=O)N[C@@H](CC(=O)O)C(=O)N[C@@H](Cc1ccccc1)C(N)=O [Gastrin]
EC50 (PTH chief cells): 0.00042 µM

Molecule: Cn1nc(CO)nc1NCCCOc1cccc(CN2CCCCC2)c1 [Loxtidine]
plasma gastrin levels [5]: 104 ± 23 pg/mL | numbers of TRAP-positive osteoclasts (Mastomys femur; 8-week treated Mastomys): 15±6 | numbers of TRAP-positive osteoclasts (Mastomys femur; 16-week treated Mastomys): 16±4.5

Molecule: C[C@@H](O)[C@@H]1NC(=O)[C@H](CCCCN)NC(=O)[C@@H](Cc2c[nH]c3ccccc23)NC(=O)[C@H](Cc2ccccc2)NC(=O)[C@@H](NC(=O)[C@H](N)Cc2ccccc2)CSSC[C@@H](C(=O)N[C@H](CO)[C@@H](C)O)NC1=O [OCTR, octreotide]
increase of IC50 in low acid versus normal G cells (isolated rodent G cells): ~5 fold | IC50 (isolated rodent G cells; Low acid G-cells): 0.14 nM | IC50 (isolated rodent G cells; Normal G-cells): 0.028 nM

Molecule: COc1cccc(-c2cc(=O)c3ccccc3o2)c1N [PD98059]
effect on CaCl2-mediated gastrin release (isolated G cells [4]): could not be inhibited

Molecule: synthetic human 1-34 PTH: synthetic human 1-34 parathyroid hormone used in cited pig studies (SVSEIQLMHNLGKHLNSMERVEWLRKKLQDVHNF; Parathyroid hormone; UniProt P01270 32-65, looked up, fragment)
increase in gastrin release [7]: approximately 10 fold

B2: native bovine PTH: native bovine parathyroid hormone used in cited pig studies (peptide, UniProt P01268 32-115, looked up)
Parathyroid hormone: AVSEIQFMHNLGKHLSSMERVEWLRKKLQDVHNFVALGASIAYRDGSSQRPRKKEDNVLVESHQKSLGEADKADVDVLIKAKPQ
modifications: Parathyroid hormone
notes: native bovine parathyroid hormone used in cited pig studies
increase in gastrin release [7]: approximately 10 fold

The next lines start with results.

IC50 (isolated G cells [2]; read-out: I50, inhibition of cAMP production): 3.8 nM
Molecule: CC(C)C[C@H](NC(=O)[C@H](CCCCN)NC(=O)CNC(=O)[C@H](CC(C)C)NC(=O)[C@@H](NC(=O)[C@@H]1CSSC[C@H](N)C(=O)N[C@@H](CO)C(=O)N[C@@H](CC(N)=O)C(=O)N[C@@H](CC(C)C)C(=O)N[C@@H](CO)C(=O)N[C@@H]([C@@H](C)O)C(=O)N1)C(C)C)C(=O)N[C@@H](CO)C(=O)N[C@@H](CCC(N)=O)C(=O)N[C@@H](CCC(=O)O)C(=O)N[C@@H](CC(C)C)C(=O)N[C@@H](Cc1c[nH]cn1)C(=O)N[C@@H](CCCCN)C(=O)N[C@@H](CC(C)C)C(=O)N[C@@H](CCC(N)=O)C(=O)N[C@H](C(=O)N[C@@H](Cc1ccc(O)cc1)C(=O)N1CCC[C@H]1C(=O)N[C@@H](CCCNC(=N)N)C(=O)N[C@H](C(=O)N[C@@H](CC(N)=O)C(=O)N[C@H](C(=O)NCC(=O)N[C@@H](CO)C(=O)NCC(=O)N[C@H](C(=O)N1CCC[C@H]1C(N)=O)[C@@H](C)O)[C@@H](C)O)[C@@H](C)O)[C@@H](C)O [Calcitonin]
inhibition of gastrin release (isolated G cells [1]): ~20% | inhibition of cAMP production (isolated G cells [2]): 20%

effect on gastrin-stimulated cAMP production (CCK2 receptor): inhibited | effect on gastrin-stimulated calcitonin gene transcription (CCK2 receptor): reversed
Molecule: O=S(=O)(NCCNC/C=C/c1ccc(Br)cc1)c1cccc2cnccc12 [H-89]
effect on PTH-stimulated cAMP production (isolated G cells [2]; [9]): reversed | effect on calcitonin inhibition of gastrin release (isolated G cells [4]; H-89 10 μM preincubation): reversed | effect on PTH-stimulated gastrin release (isolated G cells [4]; [9]): inhibited | effect on CaCl2-mediated gastrin release (isolated G cells [4]): could not be inhibited

EC50 (isolated G cells [1]; estimated): 0.06 µM | EC50 (isolated G cells [2]; read-out: E50, stimulation of cAMP production): 0.004 µM
Molecule: PTH: parathyroid hormone
stimulation of gastrin release (isolated G cells [1]; isolated G cells): ~8 fold | stimulation of cAMP production (isolated G cells [2]): 250%

PTH release from isolated human PTH chief cells [6]: 420 pM | PTH synthesis in isolated human PTH chief cells [6]: 1 nM | cAMP production in MTC-SK cells [6]: 0.67 pM
Molecule: gastrin (ligand)

cAMP production in isolated G cells (PTH receptor on G cells): 4 nM | gastrin release from isolated G cells (PTH receptor on G cells): 60 nM
B1: PTH (parathyroid hormone) (ligand, UniProt P01270 32-115, looked up, species assumed)
Parathyroid hormone: SVSEIQLMHNLGKHLNSMERVEWLRKKLQDVHNFVALGAPLAPRDAGSQRPRKKEDNVLVESHEKSLGEADKADVNVLTKAKSQ
modifications: Parathyroid hormone

inhibition of cAMP production in isolated G cells [8]: 3.8 nM | inhibition of gastrin release from isolated G cells [8]: 1.9 nM
Molecule: CGNLSTCMLGTYTQDFNKFHTFPQTAIGVGAP (ligand, UniProt P01258 85-116, looked up, species assumed, ends and bridges not checked; cysteine pairing not given here) [calcitonin]
